In ChEMBL document CHEMBL3813602, “Disseminins and Spiciferone Analogues: Polyketide-Derived Metabolites from a Fungicolous Isolate of Pestalotiopsis disseminata” (J Nat Prod, 2016):
Activity calls are given as the source filed them.

Tests used:
Type in all cases: functional, organism-based
[1] = system: Staphylococcus aureus; experiment: Antimicrobial activity against Staphylococcus aureus at 50 ug/disk after 24 hrs by disk diffusion method
[2] = system: Candida albicans; experiment: Antimicrobial activity against Candida albicans at 50 ug/disk after 48 hrs by disk diffusion method
[3] = system: Bacillus subtilis; experiment: Antimicrobial activity against Bacillus subtilis at 50 ug/disk after 24 hrs by disk diffusion method
[4] = system: Escherichia coli; experiment: Antimicrobial activity against Escherichia coli at 50 ug/disk after 24 hrs by disk diffusion method
[5] = system: Escherichia coli; experiment: Antimicrobial activity against Escherichia coli at 100 ug/disk after 24 hrs by disk diffusion method
[6] = system: Candida albicans; experiment: Antimicrobial activity against Candida albicans at 100 ug/disk after 48 hrs by disk diffusion method
[7] = system: Bacillus subtilis; experiment: Antimicrobial activity against Bacillus subtilis at 100 ug/disk after 24 hrs by disk diffusion method
[8] = system: Fusarium verticillioides; experiment: Antimicrobial activity against Fusarium verticillioides at 100 ug/disk after 48 hrs by disk diffusion method
[9] = system: Staphylococcus aureus; experiment: Antimicrobial activity against Staphylococcus aureus at 100 ug/disk after 24 hrs by disk diffusion method
[10] = system: Aspergillus flavus; experiment: Antimicrobial activity against Aspergillus flavus at 100 ug/disk after 48 hrs by disk diffusion method

Measured: Activity

CC[C@@](C)(C(=O)CCO)C1=CC(=O)[C@H](C)[C@H](C)O1
inactive: [1] | [2] | [3] | [4]

CCC(C)C(=O)[C@@H]1CO[C@@H](C)[C@@H](C)[C@H]1CO (mixture of isomers)
inactive: [5] | [6] | [7] | [8] | [9] | [10]

C[C@H](C(=O)[C@H]1CO[C@@]2(C)OC[C@@H]1[C@@H]2C)[C@@H](C)O
inactive: [5] | [6] | [7] | [8] | [9] | [10]

CC[C@@](C)(C(=O)CCO)C1=CC(=O)[C@@H](C)[C@H](C)O1
inactive: [1] | [2] | [3] | [4]

CC[C@H](C)C(=O)[C@H]1[C@H](CO)[C@H](C)[C@H](C)O[C@@H]1O
inactive: [5] | [6] | [7] | [8] | [9] | [10]

C[C@H]1[C@H]2[C@H](OC[C@@H]2C(=O)[C@@H](C)[C@@H](C)O)O[C@H]1C
inactive: [5] | [6] | [7] | [8] | [9] | [10]
